Read-outs that look alike come from different tables or passages of the source.
Columns and labels:
Assay type in all cases: binding
[1] = molecular target: T1, HeLa cell extract proteins (Homo sapiens, UniProt Q03519)
T1 construct: endogenous in cells; host or cells: HeLa cell extract
T1 sequence (Q03519 1-686): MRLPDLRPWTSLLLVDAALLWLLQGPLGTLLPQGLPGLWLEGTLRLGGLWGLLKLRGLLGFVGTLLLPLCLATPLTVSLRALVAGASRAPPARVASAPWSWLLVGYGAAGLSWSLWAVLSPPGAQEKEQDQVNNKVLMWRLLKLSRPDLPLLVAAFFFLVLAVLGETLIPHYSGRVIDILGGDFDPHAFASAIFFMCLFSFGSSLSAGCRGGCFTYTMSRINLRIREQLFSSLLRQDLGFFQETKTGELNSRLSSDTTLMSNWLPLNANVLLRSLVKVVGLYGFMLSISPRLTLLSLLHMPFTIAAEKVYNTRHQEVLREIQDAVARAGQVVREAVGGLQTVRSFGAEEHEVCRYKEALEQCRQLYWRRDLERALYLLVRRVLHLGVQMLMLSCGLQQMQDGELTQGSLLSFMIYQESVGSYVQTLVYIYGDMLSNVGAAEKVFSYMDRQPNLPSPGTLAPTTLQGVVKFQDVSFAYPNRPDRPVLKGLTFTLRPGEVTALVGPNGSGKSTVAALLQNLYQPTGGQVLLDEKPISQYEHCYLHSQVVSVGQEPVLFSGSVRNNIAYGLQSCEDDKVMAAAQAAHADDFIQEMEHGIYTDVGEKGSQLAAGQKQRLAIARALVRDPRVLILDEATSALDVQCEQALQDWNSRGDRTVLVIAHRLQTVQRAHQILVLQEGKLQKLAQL

[2] = molecular target: T2, HeLa cell extract proteins (Homo sapiens, UniProt Q13126)
T2 construct: endogenous in cells; host or cells: HeLa cell extract
T2 sequence (Q13126 1-283): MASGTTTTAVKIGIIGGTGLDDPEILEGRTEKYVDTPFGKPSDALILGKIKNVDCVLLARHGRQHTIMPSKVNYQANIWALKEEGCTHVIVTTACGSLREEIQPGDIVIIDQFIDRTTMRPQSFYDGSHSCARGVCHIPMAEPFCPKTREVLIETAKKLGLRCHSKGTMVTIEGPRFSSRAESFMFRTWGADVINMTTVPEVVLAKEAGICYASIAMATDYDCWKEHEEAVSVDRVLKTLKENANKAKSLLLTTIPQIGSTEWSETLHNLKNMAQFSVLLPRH

[3] = molecular target: T3, HeLa cell extract proteins (Homo sapiens, UniProt P35579)
T3 construct: endogenous in cells; host or cells: HeLa cell extract

[4] = molecular target: T4, HeLa cell extract proteins (Homo sapiens, UniProt O60762)
T4 construct: endogenous in cells; host or cells: HeLa cell extract

[5] = molecular target: T5, HeLa cell extract proteins (Homo sapiens, UniProt P31942)
T5 construct: endogenous in cells; host or cells: HeLa cell extract
T5 sequence (P31942 1-346): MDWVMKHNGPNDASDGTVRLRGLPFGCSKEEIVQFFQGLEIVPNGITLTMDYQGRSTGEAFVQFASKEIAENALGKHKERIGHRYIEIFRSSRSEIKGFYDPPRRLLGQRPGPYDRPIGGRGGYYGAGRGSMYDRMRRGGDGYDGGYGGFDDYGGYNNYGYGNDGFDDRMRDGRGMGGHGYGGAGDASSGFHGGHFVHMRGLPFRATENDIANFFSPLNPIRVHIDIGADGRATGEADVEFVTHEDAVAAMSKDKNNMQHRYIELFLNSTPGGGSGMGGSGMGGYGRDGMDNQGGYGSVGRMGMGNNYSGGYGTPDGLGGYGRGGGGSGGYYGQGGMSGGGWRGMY

[6] = molecular target: T6, HeLa cell extract proteins (Homo sapiens, UniProt Q9NR09)
T6 construct: endogenous in cells; host or cells: HeLa cell extract

[7] = molecular target: T7, HeLa cell extract proteins (Homo sapiens, UniProt P38646)
T7 construct: endogenous in cells; host or cells: HeLa cell extract

[8] = molecular target: T8, HeLa cell extract proteins (Homo sapiens, UniProt Q8NBE8)
T8 construct: endogenous in cells; host or cells: HeLa cell extract
T8 sequence (Q8NBE8 1-558): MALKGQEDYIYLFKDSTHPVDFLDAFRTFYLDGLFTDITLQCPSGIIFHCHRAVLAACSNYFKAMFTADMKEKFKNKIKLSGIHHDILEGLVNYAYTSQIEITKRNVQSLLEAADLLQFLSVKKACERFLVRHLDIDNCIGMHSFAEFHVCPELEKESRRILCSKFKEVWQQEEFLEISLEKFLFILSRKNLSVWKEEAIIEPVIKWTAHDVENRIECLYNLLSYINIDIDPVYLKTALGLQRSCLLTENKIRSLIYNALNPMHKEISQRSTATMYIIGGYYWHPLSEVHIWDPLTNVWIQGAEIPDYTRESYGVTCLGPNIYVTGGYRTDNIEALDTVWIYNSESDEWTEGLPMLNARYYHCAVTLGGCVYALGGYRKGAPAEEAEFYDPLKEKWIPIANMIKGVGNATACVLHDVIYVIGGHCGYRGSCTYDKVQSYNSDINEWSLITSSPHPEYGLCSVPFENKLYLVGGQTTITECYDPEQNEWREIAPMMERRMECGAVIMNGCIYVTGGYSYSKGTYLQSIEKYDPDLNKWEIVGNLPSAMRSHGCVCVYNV

[9] = molecular target: T9, HeLa cell extract proteins (Homo sapiens, UniProt P17844)
T9 construct: endogenous in cells; host or cells: HeLa cell extract

[10] = molecular target: T10, HeLa cell extract proteins (Homo sapiens, UniProt P06730)
T10 construct: endogenous in cells; host or cells: HeLa cell extract

[11] = molecular target: T11, HeLa cell extract proteins (Homo sapiens, UniProt P15104)
T11 construct: endogenous in cells; host or cells: HeLa cell extract

[12] = HeLa, protein BIRC6 (B[…] REPEAT-CONTAINING 6)
[13] = HeLa, protein DDX5 (PROBABLE ATP-DEPENDENT RNA HELICASE DDX5)

T6 sequence (Q9NR09 whole entry): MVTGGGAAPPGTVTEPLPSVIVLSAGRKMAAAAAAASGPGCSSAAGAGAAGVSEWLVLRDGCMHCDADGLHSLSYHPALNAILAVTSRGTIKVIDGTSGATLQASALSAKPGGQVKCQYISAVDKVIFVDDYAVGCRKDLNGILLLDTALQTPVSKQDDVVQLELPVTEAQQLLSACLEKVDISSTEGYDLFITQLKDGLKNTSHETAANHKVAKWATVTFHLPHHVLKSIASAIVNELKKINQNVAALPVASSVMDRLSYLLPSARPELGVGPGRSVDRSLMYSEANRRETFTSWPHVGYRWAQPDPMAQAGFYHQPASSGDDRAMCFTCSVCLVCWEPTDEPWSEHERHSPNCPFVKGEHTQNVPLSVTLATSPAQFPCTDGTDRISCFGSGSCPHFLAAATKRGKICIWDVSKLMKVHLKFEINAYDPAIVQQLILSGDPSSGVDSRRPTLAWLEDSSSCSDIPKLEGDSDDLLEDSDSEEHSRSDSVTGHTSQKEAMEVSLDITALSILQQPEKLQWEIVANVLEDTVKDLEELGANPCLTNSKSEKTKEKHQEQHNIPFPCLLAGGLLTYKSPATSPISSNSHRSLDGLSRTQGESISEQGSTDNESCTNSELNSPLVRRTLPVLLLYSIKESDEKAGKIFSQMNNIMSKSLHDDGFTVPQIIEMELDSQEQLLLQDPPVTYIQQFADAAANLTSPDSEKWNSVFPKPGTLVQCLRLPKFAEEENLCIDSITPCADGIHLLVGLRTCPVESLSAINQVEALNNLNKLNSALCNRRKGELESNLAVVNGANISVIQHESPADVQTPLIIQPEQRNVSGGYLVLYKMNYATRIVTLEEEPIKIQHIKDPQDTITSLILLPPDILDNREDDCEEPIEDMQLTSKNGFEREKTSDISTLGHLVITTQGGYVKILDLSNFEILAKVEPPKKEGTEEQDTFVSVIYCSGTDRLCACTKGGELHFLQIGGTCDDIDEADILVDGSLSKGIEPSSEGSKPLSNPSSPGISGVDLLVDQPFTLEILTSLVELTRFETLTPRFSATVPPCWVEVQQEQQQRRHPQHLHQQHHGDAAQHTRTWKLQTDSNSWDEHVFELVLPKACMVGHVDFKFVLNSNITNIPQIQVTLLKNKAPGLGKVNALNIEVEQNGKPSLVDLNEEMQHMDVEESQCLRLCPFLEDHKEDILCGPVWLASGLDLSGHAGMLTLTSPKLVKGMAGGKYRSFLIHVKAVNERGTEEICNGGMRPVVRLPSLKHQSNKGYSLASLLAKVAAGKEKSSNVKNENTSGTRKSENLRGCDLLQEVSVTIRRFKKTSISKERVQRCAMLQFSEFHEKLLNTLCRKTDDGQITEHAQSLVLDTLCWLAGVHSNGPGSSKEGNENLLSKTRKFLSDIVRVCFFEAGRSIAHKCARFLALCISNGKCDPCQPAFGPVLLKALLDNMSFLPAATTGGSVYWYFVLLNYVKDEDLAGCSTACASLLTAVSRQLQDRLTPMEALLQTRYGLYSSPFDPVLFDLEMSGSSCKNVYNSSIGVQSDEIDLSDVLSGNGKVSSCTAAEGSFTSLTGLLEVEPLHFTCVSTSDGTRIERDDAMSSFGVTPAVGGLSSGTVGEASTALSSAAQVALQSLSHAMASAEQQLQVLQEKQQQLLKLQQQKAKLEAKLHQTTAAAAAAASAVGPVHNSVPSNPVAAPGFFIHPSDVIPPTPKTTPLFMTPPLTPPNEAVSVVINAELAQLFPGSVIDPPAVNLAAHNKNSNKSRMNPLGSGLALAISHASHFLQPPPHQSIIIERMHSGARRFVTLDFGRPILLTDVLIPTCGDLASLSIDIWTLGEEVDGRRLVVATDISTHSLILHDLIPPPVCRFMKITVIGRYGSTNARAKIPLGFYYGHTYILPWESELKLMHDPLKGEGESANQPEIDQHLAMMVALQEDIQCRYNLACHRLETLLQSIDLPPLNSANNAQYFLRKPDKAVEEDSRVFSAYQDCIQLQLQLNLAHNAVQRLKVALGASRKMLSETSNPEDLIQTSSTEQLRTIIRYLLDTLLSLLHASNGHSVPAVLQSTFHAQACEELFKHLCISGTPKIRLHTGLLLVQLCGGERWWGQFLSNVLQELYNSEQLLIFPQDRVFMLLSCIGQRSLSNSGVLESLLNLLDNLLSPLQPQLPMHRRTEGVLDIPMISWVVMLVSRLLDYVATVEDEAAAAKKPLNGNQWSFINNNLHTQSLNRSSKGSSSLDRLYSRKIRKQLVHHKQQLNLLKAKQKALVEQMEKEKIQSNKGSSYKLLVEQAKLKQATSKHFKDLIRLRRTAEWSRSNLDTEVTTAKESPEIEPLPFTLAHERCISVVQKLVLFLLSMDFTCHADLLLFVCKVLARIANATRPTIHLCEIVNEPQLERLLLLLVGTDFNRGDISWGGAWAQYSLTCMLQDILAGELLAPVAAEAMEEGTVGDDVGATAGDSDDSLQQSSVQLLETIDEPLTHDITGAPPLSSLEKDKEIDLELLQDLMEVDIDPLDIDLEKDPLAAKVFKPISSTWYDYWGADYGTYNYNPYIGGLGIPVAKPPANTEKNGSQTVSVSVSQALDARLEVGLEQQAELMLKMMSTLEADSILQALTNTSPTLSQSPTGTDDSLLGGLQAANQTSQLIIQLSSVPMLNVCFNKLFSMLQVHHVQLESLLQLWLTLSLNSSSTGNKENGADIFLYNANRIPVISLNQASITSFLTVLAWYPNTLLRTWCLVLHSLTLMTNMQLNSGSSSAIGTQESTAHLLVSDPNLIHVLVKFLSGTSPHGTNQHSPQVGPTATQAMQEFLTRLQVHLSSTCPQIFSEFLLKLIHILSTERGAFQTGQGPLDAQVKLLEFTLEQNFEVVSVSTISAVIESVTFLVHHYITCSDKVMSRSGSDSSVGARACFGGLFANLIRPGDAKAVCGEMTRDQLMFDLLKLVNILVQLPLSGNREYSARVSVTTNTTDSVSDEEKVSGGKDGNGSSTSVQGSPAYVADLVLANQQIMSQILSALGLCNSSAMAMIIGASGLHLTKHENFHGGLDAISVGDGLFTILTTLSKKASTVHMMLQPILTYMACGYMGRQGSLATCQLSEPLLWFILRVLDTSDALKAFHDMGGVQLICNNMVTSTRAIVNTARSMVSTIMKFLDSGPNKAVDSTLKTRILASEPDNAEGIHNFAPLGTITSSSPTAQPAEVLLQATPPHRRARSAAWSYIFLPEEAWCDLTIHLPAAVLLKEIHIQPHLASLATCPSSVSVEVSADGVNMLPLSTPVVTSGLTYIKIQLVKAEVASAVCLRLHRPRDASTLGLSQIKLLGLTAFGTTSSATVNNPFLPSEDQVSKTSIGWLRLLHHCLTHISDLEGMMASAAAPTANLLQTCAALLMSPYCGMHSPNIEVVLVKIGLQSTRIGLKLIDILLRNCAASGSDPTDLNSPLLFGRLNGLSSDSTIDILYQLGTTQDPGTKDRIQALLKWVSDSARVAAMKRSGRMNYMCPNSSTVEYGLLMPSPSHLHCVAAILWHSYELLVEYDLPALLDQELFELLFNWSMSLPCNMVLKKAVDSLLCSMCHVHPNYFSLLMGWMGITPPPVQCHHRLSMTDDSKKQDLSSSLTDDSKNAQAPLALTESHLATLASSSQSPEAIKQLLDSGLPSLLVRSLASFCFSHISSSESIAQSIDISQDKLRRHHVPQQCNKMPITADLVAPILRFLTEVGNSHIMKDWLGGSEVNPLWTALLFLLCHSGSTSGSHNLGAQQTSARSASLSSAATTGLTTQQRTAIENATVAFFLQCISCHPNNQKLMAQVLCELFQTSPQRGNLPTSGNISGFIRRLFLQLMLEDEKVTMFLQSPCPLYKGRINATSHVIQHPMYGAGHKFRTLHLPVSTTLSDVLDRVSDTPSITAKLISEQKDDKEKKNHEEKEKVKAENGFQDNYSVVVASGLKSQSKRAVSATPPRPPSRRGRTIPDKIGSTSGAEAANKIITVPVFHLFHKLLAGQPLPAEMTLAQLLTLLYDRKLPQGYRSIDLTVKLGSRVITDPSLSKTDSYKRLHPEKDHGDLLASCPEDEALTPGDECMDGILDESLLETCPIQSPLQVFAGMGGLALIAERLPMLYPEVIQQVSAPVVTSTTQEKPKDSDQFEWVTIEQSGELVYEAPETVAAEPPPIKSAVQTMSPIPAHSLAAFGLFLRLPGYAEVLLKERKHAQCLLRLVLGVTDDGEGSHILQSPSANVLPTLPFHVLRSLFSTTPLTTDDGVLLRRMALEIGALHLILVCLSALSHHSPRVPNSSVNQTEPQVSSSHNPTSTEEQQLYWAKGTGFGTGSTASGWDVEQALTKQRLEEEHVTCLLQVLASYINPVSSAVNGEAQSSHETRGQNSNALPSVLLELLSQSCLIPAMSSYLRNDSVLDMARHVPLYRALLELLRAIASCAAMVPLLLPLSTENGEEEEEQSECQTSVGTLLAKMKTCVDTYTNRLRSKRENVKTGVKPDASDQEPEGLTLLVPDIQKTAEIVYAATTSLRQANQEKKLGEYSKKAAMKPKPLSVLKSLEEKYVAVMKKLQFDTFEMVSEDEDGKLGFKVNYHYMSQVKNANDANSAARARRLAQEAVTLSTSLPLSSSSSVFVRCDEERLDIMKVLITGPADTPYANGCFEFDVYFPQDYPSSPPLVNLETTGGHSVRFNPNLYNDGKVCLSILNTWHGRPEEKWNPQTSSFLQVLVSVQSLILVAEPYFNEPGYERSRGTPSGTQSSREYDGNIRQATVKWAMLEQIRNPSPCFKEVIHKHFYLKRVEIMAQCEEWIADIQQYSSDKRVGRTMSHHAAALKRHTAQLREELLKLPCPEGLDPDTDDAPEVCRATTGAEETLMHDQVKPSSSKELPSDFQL
T4 sequence (O60762 whole entry): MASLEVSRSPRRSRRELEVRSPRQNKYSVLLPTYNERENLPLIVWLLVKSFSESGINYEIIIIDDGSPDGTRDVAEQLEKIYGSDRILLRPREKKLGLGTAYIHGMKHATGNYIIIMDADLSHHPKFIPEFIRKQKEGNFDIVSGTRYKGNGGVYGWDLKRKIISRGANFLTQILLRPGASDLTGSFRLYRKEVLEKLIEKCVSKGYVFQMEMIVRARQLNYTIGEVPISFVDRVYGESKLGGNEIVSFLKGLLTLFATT

Row | Compound | fold changes relative to vehicle control ([1]; captured protein TAP2, HeLa) | fold changes relative to vehicle control ([2]; protein MTAP, HeLa) | fold changes relative to vehicle control ([3]; captured protein MYH9, HeLa) | fold changes relative to vehicle control ([4]; captured protein DPM1, HeLa) | fold changes relative to vehicle control ([5]; protein HNRNPH3, HeLa) | fold changes relative to vehicle control ([6]; HeLa, protein BIRC6) | fold changes relative to vehicle control ([7]; protein HSPA9, HeLa) | fold changes relative to vehicle control ([8]; protein KLHL23, HeLa) | fold changes relative to vehicle control ([9]; HeLa, protein DDX5) | fold changes relative to vehicle control ([10]; HeLa, protein EIF4E) | fold changes relative to vehicle control ([11]; captured protein GLUL, HeLa) | fold changes relative to vehicle control ([1]; HeLa, captured protein TAP2) | fold changes relative to vehicle control ([2]; HeLa, captured protein MTAP) | fold changes relative to vehicle control ([3]; HeLa, protein MYH9 (MYOSIN-9)) | fold changes relative to vehicle control ([4]; protein DPM1, HeLa) | fold changes relative to vehicle control ([5]; HeLa, captured protein HNRNPH3) | fold changes relative to vehicle control [6, 12] | fold changes relative to vehicle control ([7]; HeLa, captured protein HSPA9) | fold changes relative to vehicle control ([8]; HeLa, protein KLHL23) | fold changes relative to vehicle control [9, 13] | further results
1 | CCCCCCOc1cccc(Cc2cnc(N)nc2N)c1 [compound 2] | 0.98 | 0.78 | 1.23 | 0.84 | 0.97 | 0.92 | 1.1 | 0.94 | 1.12 | 0.97 | 1.02 |  |  |  |  |  |  |  |  |  | 
2 | NCCOCCOCC(=O)Nc1nc2ncc(CNc3ccc(C(=O)NC(CCC(=O)O)C(=O)O)cc3)nc2c(=O)[nH]1 (centres unmarked) [compound 6] |  |  |  |  |  |  |  |  |  |  |  | 1.18 | 0.95 | 1.44 | 1.1 | 0.99 | 1.06 | 0.99 | 0.8 | 1.15 | fold changes relative to vehicle control ([10]; HeLa, captured protein EIF4E): 1.03; fold changes relative to vehicle control ([11]; HeLa, protein GLUL): 0.81
3 | CCCCCCOc1ccc(Cc2cnc(N)nc2N)cc1 [compound 1] | 1.01 | 0.9 | 0.91 | 0.89 | 1.08 | 1.06 | 0.95 | 0.87 | 0.92 | 0.94 | 0.97 |  |  |  |  |  |  |  |  |  | 
4 | Nc1nc2c(c(=O)[nH]1)N(C=O)C(CNc1ccc(C(=O)N[C@@H](CCC(=O)O)C(=O)O)cc1)CN2 (some centres unmarked) [LEU, leucovorin] |  |  |  |  |  |  |  |  |  |  |  | 1.11 | 1.13 | 0.97 | 0.94 | 0.94 | 1.08 | 1.05 | 0.91 | 0.88 | fold changes relative to vehicle control ([10]; HeLa, captured protein EIF4E): 1.09; fold changes relative to vehicle control ([11]; HeLa, protein GLUL): 0.62
5 | NCCCNc1ccc(C(=O)NC(CCC(=O)O)C(=O)O)cc1 (centres unmarked) [compound 7] |  |  |  |  |  |  |  |  |  |  |  | 1.09 | 1.01 | 0.9 | 1.04 | 1.01 | 1.12 | 0.97 | 0.83 | 0.93 | fold changes relative to vehicle control ([10]; HeLa, captured protein EIF4E): 1.1; fold changes relative to vehicle control ([11]; HeLa, protein GLUL): 1.07
6 | Nc1nc2[nH]cc(CCc3ccc(C(=O)N[C@@H](CCC(=O)O)C(=O)O)cc3)c2c(=O)[nH]1 [PTX, pemetrexed] |  |  |  |  |  |  |  |  |  |  |  |  |  |  |  |  |  |  |  |  | fold changes relative to vehicle control [1]: 0.89; fold changes relative to vehicle control [2]: 0.98; fold changes relative to vehicle control [3]: 0.99; fold changes relative to vehicle control [4]: 0.88; fold changes relative to vehicle control [5]: 0.94; fold changes relative to vehicle control [6]: 1; fold changes relative to vehicle control [7]: 0.97; fold changes relative to vehicle control [8]: 0.8; fold changes relative to vehicle control [9]: 0.82; fold changes relative to vehicle control [10]: 0.99; fold changes relative to vehicle control [11]: 0.84
7 | Nc1nc2cccc(-c3ccccc3)c2n1Cc1ccc(Cl)c(Cl)c1 [compound 3] | 1.06 | 0.99 | 0.85 | 1.02 | 1.09 | 1.12 | 0.98 | 0.92 | 0.9 | 1 | 0.88 |  |  |  |  |  |  |  |  |  | 
